Key:
[1] = system: Hep3B human hepatocarcinoma cells; experiment: Cell proliferation assay (presto blue, 72 h); type: cell-based; details: Homo sapiens, Hep3B, 72 h; read-out: Hep3B (IC50), anti-proliferation activity
Protocol: (§1) Cell cultures. Hep3B (ATCC) and Hepa1-6 (ATCC) cells were seeded in 96-well plates at a density of 3000 cells/well with complete media. On day 2, media in each well was aspirated and replaced with 100 μl of fresh complete media and cells were treated with or without Compound I-1, Compound I-32, Compound I1-84, and Compound I-85, in a concentration dependent manner. Then, cells were incubated in an incubator for 72 h. On day 5, 10 μl of presto blue (Invitrogen, cat #A13261) cell viability reagent was added in each 96-well plate and incubated at 37° C. for 1-2 h. After incubation, fluorescence was measured with an excitation/emission wavelength of 560/590 nm.
(§2) Proliferation assay. Hep3B (ATCC) and Hepa1-6 (ATCC) cells were seeded in 96-well plates at a density of 3000 cells/well with complete media. On day 2, media in each well was aspirated and replaced with 100 μl of fresh complete media and cells were treated with/without testing compounds in a concentration dependent manner. Then, cells were incubated in an incubator for 72 h. On day 5, 10 μl of presto blue (Invitrogen, cat #A13261) cell viability reagent was added in each 96-well plate and incubated at 37° C. for 1-2 h. After incubation, fluorescence was measured with an excitation/emission wavelength of 560/590 nm. Anti-proliferative combination effects of Compound I-1 or Compound I-32 and regorafenib were determined in Hep3B and Hepa1-6 cells. Drug combination interaction was determined by the Chou-Talalay method (23), which is based on well-known equations for different reaction sequences and mechanisms, and different types of inhibition. These equations provide the theoretical basis for the combination index (CI)-isobologram equation that allows quantitative determination of drug interactions, where CI<1, =1, and >1 indicate synergism, additive effect, and antagonism, respectively. CI is calculated based on in vitro measurements implemented in the Compusyn software (www.combosyn.com), a platform for drug combinations pharmacodynamics with automated simulations. The software calculates CI based on the Fractional Inhibition (Fa), which is the potency expressed by the average effect values for each drug concentrations as determined by in vitro experiments. The dose-effect data entries are utilized for automated computerized analysis by the Compusyn software.
(§3) Data entered was obtained by in vitro experiments performed as follows: Hep3B or Hepa 1-6 cells were plated in a 96-well format and cell proliferation rates were determined as described above. Cells were treated with 5 doses of each test agent alone at the following concentrations: compounds of the invention dosed at 1, 5, 10, 50, or 100 μM for both Hep3B and Hepa1-6 cells, regorafenib dosed at 0.015, 0.075, 0.15, 0.75, and 1.5 μM for Hep3B cells or 0.05, 0.25, 0.5, 2.5, 5 μM for Hepa 1-6 cells. […]. Data are shown as Fa-CI plots where CI is the combination index and Fa is fractional inhibition. Results were indicated as mean±standard deviation (SD). All bar diagrams and line graphs were prepared using Graph Pad Prism 8 software. Drug synergy was calculated using the CompuSyn software.
(§4) Methods: Hep3B cells (supplied by ATCC) and Hepa1-6 cells (supplied by ATCC) were seeded in 96-well plates at a density of 3000 cells/well with complete media. On day 2, the media in each well was aspirated and replaced with 100 μL of fresh complete media, and the cells were treated in a concentration dependent manner with either Compound I-1, Compound I-32, Compound I-84, Compound I-85, sorafenib, lenvatinib, Compound I-1 in combination with sorafenib. Compound I-1 in combination with lenvatinib, Compound I-32 in combination with sorafenib, or Compound I-32 in combination with lenvatinib. The cells were then incubated in an incubator at 37° C. for 72 h. On day 5, 10 μL of presto blue (Invitrogen, cat #A13261) cell viability reagent was added to each 96-well plate and incubated at 37° C. for 1-2 h. […]

[2] = system: Hepa1-6 murine hepatoma cells; experiment: Cell proliferation assay (presto blue, 72 h); type: cell-based, mouse; details: Mus musculus, Hepa1-6, 72 h; read-out: Hepa1-6 (IC50), anti-proliferation activity
Protocol: as §1, §2, §3, §4

[3] = system: Hep3B human hepatocarcinoma cells; experiment: Colony formation assay (clonogenic survival, 7 days); type: cell-based; details: 168 h, read-out: Hep3B (IC50), anti-clonogenic activity
Protocol: (§5) Colony formation assay. Hep3B and Hepa1-6 cells were seeded in 12-well plates at a cell density of 1000 and 500 cells/well, respectively. On day 2, media in each well was aspirated and replaced with 1000 μl of fresh complete media and cells were treated with or without the respective drugs in an increasing concentration followed by the incubation of the cells for 7 days in an incubator.
(§6) On day 9, the media in each well was aspirated and cells were fixed with 10% formalin (500 μl) for 10 minutes at room temperature. Formalin was aspirated and the plates were washed with 1×PBS and stained with crystal violet for another 10 minutes. After 10 minutes of staining, crystal violet was […] the cells, rinsed with tap water for three times and the plates were dried overnight. Next day, colonies (>50 cells) were counted and analyzed.
(§7) Statistical tests. Results were indicated as mean±standard deviation (SD). All line graphs were prepared using Graph Pad Prism 8 software. Proliferation and clonogenics IC50 values were calculated using a non-linear regression model in Graph pad Prism 8.

[4] = system: Hepa1-6 murine hepatoma cells; experiment: as above; type: cell-based; details: Mus musculus, Hepa1-6, 168 h, read-out: Hepa1-6 (IC50), anti-clonogenic activity
Protocol: as §5, §6, §7

[5] = biological target: T1, Human ACC1 (Homo sapiens, UniProt Q13085); experiment: ACC1 enzymatic assay (ADP-Glo); type: biochemical; details: recombinant human ACC1 5 nM, 10 μM ATP, 10 μM acetyl CoA; Run 1-3; read-out: Compound IC50 (M) ACC1
T1 construct: FLAG (C); His (C); purchased BPS Biosciences 50202; host or cells: Baculovirus infected Sf9 cells
Protocol: (§8) Human ACC1 (Cat#50202 Lot #120830) and ACC2 (Cat #50201 Lot #160217) were obtained from BPS Biosciences, San Diego, Calif. 92121. Human ACC1 had C-terminal flag and His-tags with a MW of 270 KDa after purification from Baculovirus infected Sf9 cell expression system and came as a solution in 50 mM Tris-HCl, pH 8.0, 500 mM NaCl, 10% glycerol, 1 mM DTT, 100 μg/ml FLAG peptide with 70% purity. The stock concentration was 0.25 mg/ml corresponding to 0.926 μM. Human ACC2 was also purified from Baculovirus infected Sf9 expression system. […] The stock concentration was 0.1 mg/ml corresponding to 0.36 μM. The assay buffer for measuring the activity of ACC contained: 30 mM HEPES (pH 7.4), 2 mM MgCl2, 0.01% Brij35, 2 mM DTT, 1% DMSO (solvent for compound). For ACC1 and ACC2 assays, the following concentrations of substrate and cofactors were used: 12 mM NaHCO3, 10 μM acetyl CoA, 10 μM ATP, and 2 mM K-citrate. The recombinant human enzyme was used at 5 nM for ACC1 and 1 nM for ACC2. In brief, enzyme alone in the above buffer without substrate was used for background. All test materials were dissolved in 100% DMSO using acoustic technology (Echo550). The prepared solution was preincubated for 15 min followed by the addition of 5 μL/well of ADP standard. ATP was then added to start the reaction. The assay contents were spun and briefly shaken followed by incubation at room temperature for 1 h. At the end of completion of assay, 5 μL of ADP-Glo was added to each well to stop the reaction. The contents were mixed, spun and incubated at room temperature for 40 min followed by the addition of 10 μL/well of ADP detection reagent. The contents were spun, mixed and covered with plastic to measure luminescence. […] The light generated, measured in a luminometer, correlates to the amount of ADP generated in the ACC assay, which is indicative of ACC activity.
(§9) The enzyme concentrations for ACC1 and ACC2 were 5 nM and 1 nM, respectively.
Data represent nM or μM ADP produced, % Activity (relative to no inhibitor controls), and curve fits were performed by GraphPad Prism software. The IC50 concentration-response curves were generated for both the ACC1 and ACC2 assays using recombinant human ACC.

[6] = biological target: T2, Human ACC2 (Homo sapiens, UniProt O00763); experiment: ACC2 enzymatic assay (ADP-Glo); type: biochemical; details: recombinant human ACC2 1 nM, 10 μM ATP, 10 μM acetyl CoA; Run 1-3; read-out: Compound IC50 (M) ACC2
T2 construct: FLAG (C); His (C); purchased BPS Biosciences 50201; host or cells: Baculovirus infected Sf9 cells
T2 sequence (O00763 whole entry): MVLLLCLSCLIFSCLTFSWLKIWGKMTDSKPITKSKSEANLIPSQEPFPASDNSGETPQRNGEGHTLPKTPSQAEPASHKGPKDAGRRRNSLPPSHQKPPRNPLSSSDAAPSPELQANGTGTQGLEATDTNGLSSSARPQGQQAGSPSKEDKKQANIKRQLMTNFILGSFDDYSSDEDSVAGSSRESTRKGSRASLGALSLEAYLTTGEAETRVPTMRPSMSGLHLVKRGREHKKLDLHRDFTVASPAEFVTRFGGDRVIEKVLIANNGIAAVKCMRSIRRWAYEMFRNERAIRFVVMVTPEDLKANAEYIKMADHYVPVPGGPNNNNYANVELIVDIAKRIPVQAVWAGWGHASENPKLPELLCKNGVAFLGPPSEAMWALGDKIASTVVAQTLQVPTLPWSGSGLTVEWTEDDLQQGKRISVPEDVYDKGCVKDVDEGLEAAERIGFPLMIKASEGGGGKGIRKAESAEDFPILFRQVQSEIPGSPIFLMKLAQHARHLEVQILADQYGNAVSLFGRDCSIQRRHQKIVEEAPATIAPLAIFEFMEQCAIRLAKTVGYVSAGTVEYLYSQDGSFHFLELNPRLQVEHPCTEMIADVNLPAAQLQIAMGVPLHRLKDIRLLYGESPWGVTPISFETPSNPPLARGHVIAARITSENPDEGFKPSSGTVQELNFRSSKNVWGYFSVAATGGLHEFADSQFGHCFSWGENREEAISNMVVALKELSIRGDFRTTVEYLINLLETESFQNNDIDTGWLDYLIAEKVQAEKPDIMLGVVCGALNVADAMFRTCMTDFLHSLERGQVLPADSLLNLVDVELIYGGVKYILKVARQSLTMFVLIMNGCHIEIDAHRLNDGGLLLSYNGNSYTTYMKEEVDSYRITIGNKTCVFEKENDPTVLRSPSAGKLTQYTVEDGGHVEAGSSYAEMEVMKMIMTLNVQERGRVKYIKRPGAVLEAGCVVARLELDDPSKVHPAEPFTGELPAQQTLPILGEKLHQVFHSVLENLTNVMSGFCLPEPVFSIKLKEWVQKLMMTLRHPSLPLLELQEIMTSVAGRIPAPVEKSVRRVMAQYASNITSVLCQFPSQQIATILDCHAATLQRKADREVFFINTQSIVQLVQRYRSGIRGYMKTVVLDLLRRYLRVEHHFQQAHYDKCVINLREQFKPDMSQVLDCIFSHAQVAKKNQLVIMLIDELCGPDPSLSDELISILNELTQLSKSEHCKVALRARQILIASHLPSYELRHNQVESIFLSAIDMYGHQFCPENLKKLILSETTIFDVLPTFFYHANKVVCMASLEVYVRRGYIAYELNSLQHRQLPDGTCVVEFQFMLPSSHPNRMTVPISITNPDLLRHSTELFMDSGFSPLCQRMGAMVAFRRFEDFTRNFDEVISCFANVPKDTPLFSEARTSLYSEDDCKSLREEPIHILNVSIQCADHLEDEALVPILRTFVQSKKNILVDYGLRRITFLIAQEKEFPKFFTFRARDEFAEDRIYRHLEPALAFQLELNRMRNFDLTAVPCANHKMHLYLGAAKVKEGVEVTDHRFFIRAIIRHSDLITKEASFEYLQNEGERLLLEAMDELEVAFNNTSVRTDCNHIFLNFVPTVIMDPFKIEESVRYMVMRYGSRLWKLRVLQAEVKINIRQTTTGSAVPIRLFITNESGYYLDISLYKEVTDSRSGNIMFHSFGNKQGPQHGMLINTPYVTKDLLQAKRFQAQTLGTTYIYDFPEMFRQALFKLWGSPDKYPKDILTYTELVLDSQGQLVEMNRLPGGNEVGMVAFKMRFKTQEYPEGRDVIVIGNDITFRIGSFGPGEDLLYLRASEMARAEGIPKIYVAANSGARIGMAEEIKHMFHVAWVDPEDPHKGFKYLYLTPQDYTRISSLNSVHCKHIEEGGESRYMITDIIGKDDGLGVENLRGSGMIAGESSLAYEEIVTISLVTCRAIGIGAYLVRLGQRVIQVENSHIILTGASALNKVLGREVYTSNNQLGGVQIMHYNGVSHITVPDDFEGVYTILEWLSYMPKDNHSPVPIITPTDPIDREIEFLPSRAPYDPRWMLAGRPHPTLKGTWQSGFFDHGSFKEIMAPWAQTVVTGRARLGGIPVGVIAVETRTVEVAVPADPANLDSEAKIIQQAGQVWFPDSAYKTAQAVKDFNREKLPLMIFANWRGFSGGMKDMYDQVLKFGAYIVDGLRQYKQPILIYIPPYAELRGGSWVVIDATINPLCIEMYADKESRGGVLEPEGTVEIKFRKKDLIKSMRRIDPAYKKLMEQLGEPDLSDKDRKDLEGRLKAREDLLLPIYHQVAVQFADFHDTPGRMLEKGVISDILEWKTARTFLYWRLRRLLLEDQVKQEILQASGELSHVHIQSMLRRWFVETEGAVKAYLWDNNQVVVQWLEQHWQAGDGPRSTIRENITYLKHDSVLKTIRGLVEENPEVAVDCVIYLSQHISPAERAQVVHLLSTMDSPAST
Protocol: as §8, §9
Data represent nM or μM ADP produced, % Activity (relative to no inhibitor controls), and curve fits were performed by GraphPad Prism software. […]

[7] = system: Acyl-CoA synthetase activity in rat liver microsomes; experiment: Synthesis of CoA derivatives in rat liver microsomes (LCMS); details: 1 mM substrate, 30 min sample vs 0 min
Protocol: Prior to the experiment a 1 mM working stock was created in primary hepatocyte media which was used to create the final dilution series of 0 (vehicle), 0.3, 1, 3, 10, and 30 μM. The final concentration of DMSO in all samples was <1%.
For initial validation of ACS activity using palmitate, 14C-palmitate was added (0.5 μCi/ml). Each sample was equilibrated at 37° C. while shaking for 10 min before the reaction was initiated by the addition of 0.04 mg of rat microsomal preparation (ThermoFisher Scientific. Cat #RTM-CPL, Lot #RT060-A) followed by incubation for 1, 3, 10, or 30 mins. Time 0 sample with no added microsomes was used as a control. The reaction was stopped by immediately placing the reaction tube on ice followed by the rapid addition of the reaction mixture to 2.25 ml ice-cold isopropanol/heptane/2M-sulfuric acid (40:10:1, vol/vol) in a 5 ml glass vial. […] For studies that involved measurement of 14C Palmitoyl-CoA formation, 200 μl of the lower aqueous phase was added to the 5 ml of scintillation fluid and the number of DPMs were determined by liquid scintillation counting for 5 minutes using a LS6500 Liquid Scintillation Counter (Beckman Coulter). […]
The reaction products were ionized by electrospray ion source (ESI) in positive mode. […] The resulting mass spectra were analyzed using the Xcalibur 2.1 Qualitative software package. […]

Structure (SMILES) | IC50 [1] | IC50 [2] | IC50 [3] | IC50 [4] | formation of the CoA derivative, detection by LCMS [7] | other results
O=C(c1c2ccccc2cc2ccccc12)N1CCC(N2CCC[C@@H](C(=O)N3CCOCC3)C2)CC1 [CP 640186, reference compound] |  |  |  |  |  | IC50 [5]: 2.14e-06 M; IC50 [6]: 7.81e-08 M
CC(C)(CCCc1ccc(CCCC(C)(C)C(=O)SCCNC(=O)CCNC(=O)[C@H](O)C(C)(C)COP(=O)(O)OP(=O)(O)OC[C@H]2O[C@@H](n3cnc4c(N)ncnc43)[C@H](O)[C@@H]2OP(=O)(O)O)cc1)C(=O)O [III-1-CoA, 5-[4-(4-Carboxy-4-methylpentyl)-phenyl]-2,2-dimethylpentanoic acid Coenzyme A ester] |  |  |  |  | could not be confirmed using fragmentation analysis | 
CC(C)(CCCc1ccccc1CCCC(C)(C)C(=O)SCCNC(=O)CCNC(=O)[C@H](O)C(C)(C)COP(=O)(O)OP(=O)(O)OC[C@H]1O[C@@H](n2cnc3c(N)ncnc32)[C@H](O)[C@@H]1OP(=O)(O)O)C(=O)O [Compound I-61-CoA, 5-[2-(4-Carboxy-4-methylpentyl)-phenyl]-2,2-dimethylpentanoic acid Coenzyme A ester] |  |  |  |  | could not be confirmed using fragmentation analysis | 

Second part, led by results:

IC50 [1] | IC50 [2] | Structure (SMILES) | IC50 [3] | IC50 [4] | formation of the CoA derivative, detection by LCMS [7] | other results
> 100 µM | > 100 µM | CC(C)(CCCCc1cccc(CCCCC(C)(C)CC(=O)O)c1)CC(=O)O [Compound I-85, 7,7′-(1,3-phenylene)bis(3,3-dimethylheptanoic acid)] | 49.1 µM | 61 µM |  | 
> 100 µM | > 100 µM | CC(C)(CCCCc1ccc(CCCCC(C)(C)CC(=O)O)cc1)CC(=O)O [Compound I-84, 7,7′-(1,4-phenylene)bis(3,3-dimethylheptanoic acid)] | 50.1 µM | 64.9 µM |  | 

— patent publication US11730712B2, “Functionalized long-chain hydrocarbon mono- and di-carboxylic acids and derivatives thereof, and their use for the prevention or treatment of disease” (ESPERVITA THERAPEUTICS, INC., priority 2021, dated 2023)
